Results on seven compounds are retold here after ChEMBL document CHEMBL4130525, “gem-Dinitroalkyl Benzenes: A Novel Class of IOP-Lowering Agents for the Treatment of Ocular Hypertension” (ACS Med Chem Lett, 2017).

For data set [1], the system named is Oryctolagus cuniculus. As to the kind of experiment: Antiglaucoma activity in hypertonic saline-induced New Zealand albino rabbit transient ocular hypertensive model assessed as IOP lowering efficacy at 1% dose administered topically immediately after hypertonic saline injection measured at 120 mins post dose. Format: functional.
Data set [2] is described as follows: Induction of NO release assessed as nitrite formation at 0.1 mM in phosphate buffer saline at pH 1.5 to 7.4 measured up to 24 hrs by Griess assay. Format: functional.
Data set [3] in a line: n-Octanol-water distribution coefficient, log D of the compound at pH 7.4 after 20 mins by UV-spectrphotometric based shake-flask method. Format: physicochemical.
Data set [4] can be described thus: Induction of NO release assessed as nitrite formation at 0.1 mM in HCl at pH 1.5 in absence of L-cysteine measured after 6 hrs by Griess assay. Format: functional.
Data set [5] in a line: Induction of NO release assessed as nitrite formation at 0.1 mM in HCl at pH 1.5 in absence of L-cysteine measured after 1 hr by Griess assay. Format: functional. A general note: The Griess reaction detects nitrite, a stable product of nitric oxide.
A short description of data set [6]: Ionization constant, pKa of the compound in KCl at pH 1.8 by potentiometric titration. Format: physicochemical.
Data set [7] relates to Thoracic aorta. As to the kind of experiment: Vasodilatory activity in denuded Wistar rat thoracic aorta assessed as relaxation of L-phenylephrine-induced contractions of aortic strips. Format: functional, tissue-based.
Data set [8] can be described thus: Drug metabolism assessed as anisic acid formation after 24 hrs by HPLC analysis. Format: physicochemical.
Data set [9] deals with Oryctolagus cuniculus. As to the kind of experiment: Antiglaucoma activity in hypertonic saline-induced New Zealand albino rabbit transient ocular hypertensive model assessed as IOP lowering efficacy at 1% dose administered topically immediately after hypertonic saline injection measured at 60 mins post dose. Format: functional.
Data set [10] relates to Oryctolagus cuniculus. As to the kind of experiment: Antiglaucoma activity in hypertonic saline-induced New Zealand albino rabbit transient ocular hypertensive model assessed as IOP lowering efficacy at 1% dose administered topically immediately after hypertonic saline injection measured at 240 mins post dose. Format: functional.
The nature of data set [11]: Induction of NO release assessed as nitrite formation at 0.1 mM in phosphate buffer saline at pH 7.4 in presence of 5 mM of L-cysteine measured up to 24 hrs by Griess assay. Format: functional.
A short description of data set [12]: Lipophilicity, log P of the compound by shake flask method. The following applies: octanol/water. Format: physicochemical.
Data set [13] is described as follows: Induction of NO release assessed as nitrite formation at 0.1 mM in phosphate buffer saline at pH 7.4 in presence of 5 mM of L-cysteine measured after 6 hrs by Griess assay. Format: functional.
Data set [14] is described as follows: Induction of NO release assessed as nitrite formation at 0.1 mM in phosphate buffer saline at pH 7.4 in presence of 5 mM of L-cysteine measured after 1 hr by Griess assay. Format: functional.
A short description of data set [15]: Induction of NO release assessed as nitrite formation at 0.1 mM in phosphate buffer saline at pH 7.4 in absence of L-cysteine measured up to 24 hrs by Griess assay. Format: functional.
A short description of data set [16]: Induction of NO release assessed as nitrite formation at 0.1 mM in phosphate buffer saline at pH 7.4 in absence of L-cysteine measured after 1 hr by Griess assay. Format: functional.
The subject of data set [17] is Thoracic aorta. In words: Vasodilatory activity in denuded Wistar rat thoracic aorta assessed as relaxation of L-phenylephrine-induced contractions of aortic strips in presence of 1 uM of soluble guanylate cyclase inhibitor ODQ. Format: functional. The arrangement: scale not given: the % may be the effect or the level left.
The nature of data set [18]: Induction of NO release assessed as nitrite formation at 0.1 mM in phosphate buffer saline at pH 7.4 in absence of L-cysteine measured after 6 hrs by Griess assay. Format: functional.
For data set [19], the system named is Oryctolagus cuniculus. As to the kind of experiment: Antiglaucoma activity in carbomer-induced New Zealand albino rabbit transient ocular hypertensive model assessed as reduction in IOP at 1% dose administered topically everyday for 5 days measured 1 hr post drug instillation. Format: functional, organism-based.
Data set [20] concerns Oryctolagus cuniculus. As to the kind of experiment: Antiglaucoma activity in carbomer-induced New Zealand albino rabbit transient ocular hypertensive model assessed as reduction in IOP at 1% dose administered topically measured after 24 hrs. Format: functional, organism-based.
Data set [21] can be described thus: Induction of NO release assessed as nitrite formation at 0.1 mM in phosphate buffer saline at pH 7.4 in presence of 5 mM of L-cysteine by Griess assay. Format: functional. As to conditions: TDE = time-dependent effect.
The mark [22] stands for this setting: Rattus norvegicus, Thoracic aorta.

Structures are written as SMILES. Values joined by “and” are separate entries in the source; they are usually repeats but may differ in a detail not shown here. Equal entries are not always repeated. Active and inactive are the calls of the source. The rule behind the calls is not given here. Bounds are passed on as bounds.

In general, logD refers to the decadic logarithm of the distribution of all forms, ionised or not, between an organic phase and buffer at a given pH. A word on the pKa: it is the negative logarithm of the acid dissociation constant. As usually defined, the EC50 is the concentration at which the effect is half-maximal. In the case of `COc1ccc(C([N+](=O)[O-])[N+](=O)[O-])cc1`, the Activity was -1.1 mmHg in the data set with Oryctolagus cuniculus [1]; “Dose-dependent effect” in [2]; 4% in data set [4]; 1.3% in data set [5]; -10.7 mmHg in the data set on Oryctolagus cuniculus [9]. In addition, the logD at 20 min in data set [3] is -1.21. The pKa in data set [6] turned out to be 3.9. Moreover, the EC50 with Thoracic aorta [7] (setting [22]) came to 64 µM. In addition, the Drug metabolism result in data set [8] is recorded as “Dose-dependent effect”. Moreover, the result in the data set with Oryctolagus cuniculus [10] was Active.

As usually defined, the logP is a log measure of how a compound divides between an organic and an aqueous phase. Regarding `COc1ccc(C(C)([N+](=O)[O-])[N+](=O)[O-])cc1`, the result (in data set [11]; in data set [15]; with Oryctolagus cuniculus [10]) was Active. In addition, the Activity in the data set on Oryctolagus cuniculus [1] was -0.11 mmHg; in data set [2] it was “Dose-dependent effect”; in data set [13] it was 25.4%; in data set [14] it was 3.5%; in data set [16] it was 3%; in the data set on Thoracic aorta [17], 40%. In addition, the Activity in the data set with Oryctolagus cuniculus [9] was -7.3 mmHg; in [18], 24.9%. In [12], this compound gave a logP of 2.2.

`Cc1ccc(C(C)([N+](=O)[O-])[N+](=O)[O-])cc1`: the Activity is -6.7 mmHg with Oryctolagus cuniculus [1]; 1.3% in data set [13]; under 0.5% in data set [14]; 24% in the data set on Thoracic aorta [17]; -4.9 mmHg in the data set with Oryctolagus cuniculus [9]; “Dose-dependent effect” in the data set on Oryctolagus cuniculus [20]. Besides, the Activity entry in [21] was “Tde”; in the data set with Oryctolagus cuniculus [10] it was -0.04 mmHg. Further, the result in the data set on Oryctolagus cuniculus [19] was Active. The compound further registered a logP in [12] of 2.69. The result in [16] and in [18] was inactive. In addition, in the data set with Thoracic aorta [7], the EC50 is 4 µM and 20 µM.

As to `COCCOCCOCCOc1ccc(C(C)([N+](=O)[O-])[N+](=O)[O-])cc1`, the outcome (in data set [11]; in data set [15]; with Oryctolagus cuniculus [10]) was Active. Further, the Activity with Oryctolagus cuniculus [1] was 0.11 mmHg; in [13], 13.8%; in data set [14] it was 2.7%; in data set [16] it was 2.6%; in the data set on Oryctolagus cuniculus [9] it was -12.7 mmHg; in data set [18], 12.8%. The compound also came in with a logP in data set [12] of 1.63. For the same compound, the EC50 with Thoracic aorta [7] was 55 µM and 264 µM.

On to `CC(c1ccccc1)([N+](=O)[O-])[N+](=O)[O-]`, for which the Activity with Oryctolagus cuniculus [1] is -10.5 mmHg; in data set [13], 2%; in [14] it was under 0.5%; in the data set with Oryctolagus cuniculus [9], -5.6 mmHg; in data set [21], “Tde”; with Oryctolagus cuniculus [10], 0.3 mmHg. This compound displayed a logP in data set [12] of 2.34. In addition, the outcome in data set [16] and in data set [18] was inactive. The EC50 in the data set on Thoracic aorta [7] is 50 µM and 24 µM.

Take `CCOC(=O)[N-]c1c[n+](N2CCOCC2)no1` [MOLSIDOMINE]: the results for the Activity in the data set on Oryctolagus cuniculus [1], in the data set on Oryctolagus cuniculus [9] and in the data set with Oryctolagus cuniculus [10] were 0.12 mmHg, -4.6 mmHg and -0.34 mmHg, respectively. Further, the EC50 with Thoracic aorta [7] (setting [22]) is 18 µM. Besides, the Drug metabolism entry in the data set on Oryctolagus cuniculus [10] is listed as “Metabolite detected”.

In the case of `CC(c1ccc(C(F)(F)F)cc1)([N+](=O)[O-])[N+](=O)[O-]`, the Activity with Oryctolagus cuniculus [1] is -10.4 mmHg; in data set [13] it was 4.6%; in data set [14], 0.8%; in the data set with Thoracic aorta [17] it was 19%; in the data set on Oryctolagus cuniculus [9], -6.9 mmHg; in data set [21], “Tde”. Besides, in the data set with Oryctolagus cuniculus [10], the Activity was -0.34 mmHg. Also, the logP in data set [12] was found to be 2.92. Besides, the result in [16] and in data set [18] was inactive.
